Assays:
[1] = Dynamic vapor sorption (DVS), hygroscopicity; type: physicochemical
Procedure: Dynamic vapor sorption (“DVS”) was performed at 25° C., using approx 10-15 mg of sample and N2 gas at a flow rate of 200 mL/min, dm/dt=0.01% min, minimum dm/dt stability duration of 10 min, max equilibration time of 180 min, drying at 0% RH for 120 min, scanning from 0% RH to 90% RH to 0% RH with a step size of 10% RH.
Total cycling time varied, but in all cases was about 200-250 min.

[2] = Solubility of hydrogen fumarate salt 11 (1000 mg scale-up batch); type: physicochemical

## CC(C)c1nc(-c2cnc(N)c(OC(F)(F)F)c2)cn1C12CC(N3CCOCC3)(C1)C2.O=C(O)/C=C/C(=O)O [Example 11, 5-(2-isopropyl-1-(3-morpholinobicyclo[1.1.1]pentan-1-yl)-1H-imidazol-4-yl)-3-(trifluoromethoxy)pyridin-2-amine hydrogen fumarate]
[1]; DVS, 25° C.
  Maximum sorption: 0.47%
[1]; DVS, 25° C., 0-40% RH
  Hygroscopicity (0-40% RH): 0.1%
[1]; DVS, 25° C., 0-90% RH
  Hygroscopicity (0-90% RH): 0.47%
[1]; DVS, Target % P/P0 0.0
  Change in mass (%) Desorption: −0.0114%
  Change in mass (%) Sorption: 0.0000%
[1]; DVS, Target % P/P0 10.0
  Change in mass (%) Desorption: 0.0209%
  Change in mass (%) Hysteresis: 0.0010%
  Change in mass (%) Sorption: 0.0200%
[1]; DVS, Target % P/P0 20.0
  Change in mass (%) Desorption: 0.0448%
  Change in mass (%) Hysteresis: 0.0067%
  Change in mass (%) Sorption: 0.0381%
[1]; DVS, Target % P/P0 30.0
  Change in mass (%) Desorption: 0.0866%
  Change in mass (%) Hysteresis: 0.0286%
  Change in mass (%) Sorption: 0.0581%
[1]; DVS, Target % P/P0 40.0
  Change in mass (%) Desorption: 0.1238%
  Change in mass (%) Hysteresis: 0.0267%
  Change in mass (%) Sorption: 0.0971%
[1]; DVS, Target % P/P0 50.0
  Change in mass (%) Desorption: 0.1695%
  Change in mass (%) Hysteresis: 0.0352%
  Change in mass (%) Sorption: 0.1343%
[1]; DVS, Target % P/P0 60.0
  Change in mass (%) Desorption: 0.2285%
  Change in mass (%) Hysteresis: 0.0457%
  Change in mass (%) Sorption: 0.1828%
[1]; DVS, Target % P/P0 70.0
  Change in mass (%) Desorption: 0.2885%
  Change in mass (%) Hysteresis: 0.0438%
  Change in mass (%) Sorption: 0.2447%
[1]; DVS, Target % P/P0 80.0
  Change in mass (%) Hysteresis: 0.0390%
  Change in mass (%) Sorption: 0.3295%
[1]; DVS, Target % P/P0 90.0
  Change in mass (%) Desorption: 0.4742%
  Change in mass (%) Sorption: 0.4742%
[1]; form change after DVS
  Hygroscopicity; form change: no change
[2]; aqueous with cosolvent or surfactant or cyclodextrin, 1/1 (v/v) Acetone/H2O, 50° C.
  solubility: 50 to 100 mg/mL
[2]; aqueous with cosolvent or surfactant or cyclodextrin, 1/1 (v/v) Acetone/H2O, RT
  solubility: < 33 mg/mL
[2]; aqueous with cosolvent or surfactant or cyclodextrin, 1/1 (v/v) EtOH/H2O, 50° C.
  solubility: 50 to 100 mg/mL
[2]; aqueous with cosolvent or surfactant or cyclodextrin, 1/1 (v/v) EtOH/H2O, RT
  solubility: 20 to 33 mg/mL
[2]; ethanol, organic solvent or mixture, EtOH, 50° C.
  solubility: 20 to 33 mg/mL
[2]; ethanol, organic solvent or mixture, EtOH, RT
  solubility: < 20 mg/mL
[2]; organic solvent or mixture, ACN, 50° C.
  solubility: < 10 mg/mL
[2]; organic solvent or mixture, ACN, RT
  solubility: < 10 mg/mL
[2]; organic solvent or mixture, Acetone, 50° C.
  solubility: 10 to 20 mg/mL
[2]; organic solvent or mixture, Acetone, RT
  solubility: < 10 mg/mL
[2]; organic solvent or mixture, DCM, 50° C.
  solubility: < 10 mg/mL
[2]; organic solvent or mixture, DCM, RT
  solubility: < 10 mg/mL
[2]; organic solvent or mixture, DMF, RT
  solubility: > 100 mg/mL
[2]; organic solvent or mixture, DMSO, 50° C.
  solubility: > 100 mg/mL
[2]; organic solvent or mixture, DMSO, RT
  solubility: < 100 mg/mL
[2]; organic solvent or mixture, Dioxane, 50° C.
  solubility: 20 to 33 mg/mL
[2]; organic solvent or mixture, Dioxane, RT
  solubility: < 20 mg/mL
[2]; organic solvent or mixture, EtOAc, 50° C.
  solubility: < 10 mg/mL
[2]; organic solvent or mixture, EtOAc, RT
  solubility: < 10 mg/mL
[2]; organic solvent or mixture, Heptane, 50° C.
  solubility: < 10 mg/mL
[2]; organic solvent or mixture, Heptane, RT
  solubility: < 10 mg/mL
[2]; organic solvent or mixture, IPA, 50° C.
  solubility: 20 to 33 mg/mL
[2]; organic solvent or mixture, IPA, RT
  solubility: 10 to 20 mg/mL
[2]; organic solvent or mixture, MEK, 50° C.
  solubility: 10 to 20 mg/mL
[2]; organic solvent or mixture, MEK, RT
  solubility: < 10 mg/mL
[2]; organic solvent or mixture, MTBE, 50° C.
  solubility: < 10 mg/mL
[2]; organic solvent or mixture, MTBE, RT
  solubility: < 10 mg/mL
[2]; organic solvent or mixture, MeOH, 50° C.
  solubility: 50 to 100 mg/mL
[2]; organic solvent or mixture, MeOH, RT
  solubility: 25 to 50 mg/mL
[2]; organic solvent or mixture, THF, 50° C.
  solubility: 33 to 50 mg/mL
[2]; organic solvent or mixture, THF, RT
  solubility: < 10 mg/mL
[2]; organic solvent or mixture, Toluene, 50° C.
  solubility: < 10 mg/mL
[2]; organic solvent or mixture, Toluene, RT
  solubility: < 10 mg/mL
[2]; water, H2O, 50° C.
  solubility: 10 to 20 mg/mL
[2]; water, H2O, RT
  solubility: < 10 mg/mL

Reference: patent US20190382396A1, “SALTS OF BICYCLO[1.1.1]PENTANE INHIBITORS OF DUAL LEUCINE ZIPPER (DLK) KINASE FOR THE TREATMENT OF DISEASE” (Board of Regents, The University of Texas System, priority 2018, published 2019)
